Results reported in US11053204B2, “Pyrimidinyloxy benzene derivatives as herbicides” (FMC Corporation, priority 2015, dated 2021).

Columns and labels:
Format in all cases: in vivo
[1] = system: windgrass (Apera spica-venti); assay: Test C preemergence, plant response rating
[2] = system: galium (catchweed bedstraw, Galium aparine); assay: Test C preemergence, plant response rating
[3] = system: johnsongrass (Sorghum halepense); assay: Test C preemergence, plant response rating
[4] = system: pigweed, palmer (palmer pigweed, Amaranthus palmeri); assay: Test C preemergence, plant response rating
[5] = system: surinam grass (Brachiaria decumbens); assay: Test C postemergence, plant response rating
Summary of the method: (§1)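 Greenhouse plants rated visually against untreated controls 13–15 d after treatment, scale 0 = no effect to 100 = complete control. Postemergence sprays went onto potted plants 2–18 cm tall (1–4 leaves); preemergence sprays onto soil freshly sown in loam–sand or silt loam, chemicals formulated in non-phytotoxic solvent with surfactant.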

[6] = system: speedwell (bird's-eye speedwell, Veronica persica); assay: Test C postemergence, plant response rating; details: for Speedwell plant response rating: scale 0 to 100 (0 no effect, 100 complete control)
Summary of the method: as §1

[7] = system: geranium, cutleaf (cutleaf geranium, Geranium dissectum); assay: Test C postemergence, plant response rating; details: for Geranium, Cutleaf plant response rating: scale 0 to 100 (0 no effect, 100 complete control)
Summary of the method: as §1

[8] = system: wild mustard (Sinapis arvensis); assay: Test C postemergence, plant response rating; details: for Mustard, Wild plant response rating: scale 0 to 100 (0 no effect, 100 complete control)
Summary of the method: as §1

[9] = system: buckwheat, wild (wild buckwheat, Polygonum convolvulus); assay: Test C postemergence, plant response rating; details: for Buckwheat, Wild plant response rating: scale 0 to 100 (0 no effect, 100 complete control)
Summary of the method: as §1

[10] = system: field violet (Viola arvensis); assay: Test C postemergence, plant response rating; details: for Field Violet plant response rating: scale 0 to 100 (0 no effect, 100 complete control)
Summary of the method: as §1

[11] = system: windgrass (Apera spica-venti); assay: Test C postemergence, plant response rating
Summary of the method: as §1

[12] = system: Canada thistle (Cirsium arvense); assay: Test C postemergence, plant response rating; details: for Canada Thistle plant response rating: scale 0 to 100 (0 no effect, 100 complete control)
Summary of the method: as §1

[13] = system: wild poinsettia (Euphorbia heterophylla); assay: Test C postemergence, plant response rating; details: for Poinsettia, Wild plant response rating: scale 0 to 100 (0 no effect, 100 complete control)
Summary of the method: as §1

[14] = system: field poppy (Papaver rhoeas); assay: Test C postemergence, plant response rating; details: for Field Poppy plant response rating: scale 0 to 100 (0 no effect, 100 complete control)
Summary of the method: as §1

[15] = system: johnsongrass (Sorghum halepense); assay: Test C postemergence, plant response rating; details: for Johnsongrass plant response rating: scale 0 to 100 (0 no effect, 100 complete control)
Summary of the method: as §1

[16] = system: pigweed, palmer (palmer pigweed, Amaranthus palmeri); assay: Test C postemergence, plant response rating; details: for Pigweed, Palmer plant response rating: scale 0 to 100 (0 no effect, 100 complete control)
Summary of the method: as §1

[17] = system: nightshade (eastern black nightshade, Solanum ptycanthum); assay: Test C postemergence, plant response rating; details: for Nightshade plant response rating: scale 0 to 100 (0 no effect, 100 complete control)
Summary of the method: as §1

kochia (Kochia scoparia) = assay: Test C preemergence, plant response rating
[18] = 125 g ai/ha, scale 0 to 100 (0 no effect, 100 complete control)

`O=C(CCCC(F)(F)F)c1c(Cl)cccc1Oc1ncc(Cl)cn1` [Compound 143] was tested, and the “Plant response rating, Windgrass” value ([1]; 31 g ai/ha, scale 0 to 100) was 85, the “Plant response rating, Windgrass” value ([1]; 62 g ai/ha, scale 0 to 100) was 100 and the “Plant response rating, Windgrass” value ([1]; 125 g ai/ha, scale of 0 to 100) was 100. The “Plant response rating, Galium” value ([2]; 31 g ai/ha, scale 0 to 100) was 30, the “Plant response rating, Galium” value ([2]; 62 g ai/ha, scale 0 to 100) was 80 and the “Plant response rating, Galium” value ([2]; 125 g ai/ha, scale of 0 to 100) was 80. The “Plant response rating, Johnsongrass” value ([3]; 31 g ai/ha, scale 0 to 100) was 25, the “Plant response rating, Johnsongrass” value ([3]; 62 g ai/ha, scale 0 to 100) was 50 and the “Plant response rating, Johnsongrass” value ([3]; 125 g ai/ha, scale of 0 to 100) was 80. The “Plant response rating, Pigweed, Palmer” value ([4]; 31 g ai/ha, scale 0 to 100) was 100, the “Plant response rating, Pigweed, Palmer” value ([4]; 62 g ai/ha, scale 0 to 100) was 100 and the “Plant response rating, Pigweed, Palmer” value ([4]; 125 g ai/ha, scale of 0 to 100) was 100. The “Plant response rating, Surinam Grass” value ([5]; 16 g ai/ha, scale of 0 to 100) was 5, the “Plant response rating, Surinam Grass” value ([5]; 31 g ai/ha, scale 0 to 100) was 10 and the “Surinam Grass plant response rating” value [5, 18] was 20. For the same molecule, the “Plant response rating, Speedwell” value ([6]; 16 g ai/ha, scale of 0 to 100) was 80, the “Plant response rating, Speedwell” value ([6]; 31 g ai/ha, scale 0 to 100) was 80 and the “Speedwell plant response rating” value ([6]; 62 g ai/ha) was 85. For the same molecule, the “Speedwell plant response rating” value ([6]; 125 g ai/ha) was 100, the “Plant response rating, Geranium, Cutleaf” value ([7]; 16 g ai/ha, scale of 0 to 100) was 30 and the “Plant response rating, Geranium, Cutleaf” value ([7]; 31 g ai/ha, scale 0 to 100) was 50. The “Geranium, Cutleaf plant response rating” value ([7]; 62 g ai/ha) was 60, the “Geranium, Cutleaf plant response rating” value ([7]; 125 g ai/ha) was 75 and the “Plant response rating, Mustard, Wild” value ([8]; 16 g ai/ha, scale of 0 to 100) was 100. For the same molecule, the “Plant response rating, Mustard, Wild” value ([8]; 31 g ai/ha, scale 0 to 100) was 100, the “Mustard, Wild plant response rating” value ([8]; 62 g ai/ha) was 100 and the “Mustard, Wild plant response rating” value ([8]; 125 g ai/ha) was 100. For the same molecule, the “Plant response rating, Buckwheat, Wild” value ([9]; 16 g ai/ha, scale of 0 to 100) was 75, the “Plant response rating, Buckwheat, Wild” value ([9]; 31 g ai/ha, scale 0 to 100) was 85 and the “Buckwheat, Wild plant response rating” value ([9]; 62 g ai/ha) was 100. For the same molecule, the “Buckwheat, Wild plant response rating” value ([9]; 125 g ai/ha) was 100, the “Plant response rating, Field Violet” value ([10]; 16 g ai/ha, scale of 0 to 100) was 75 and the “Plant response rating, Field Violet” value ([10]; 31 g ai/ha, scale 0 to 100) was 80. The “Field Violet plant response rating” value ([10]; 62 g ai/ha) was 98, the “Field Violet plant response rating” value ([10]; 125 g ai/ha) was 100 and the “Plant response rating, Windgrass” value ([11]; 16 g ai/ha, scale of 0 to 100) was 30. The “Plant response rating, Windgrass” value ([11]; 31 g ai/ha, scale 0 to 100) was 35, the “Windgrass plant response rating” value [11, 18] was 40 and the “Plant response rating, Canada Thistle” value ([12]; 16 g ai/ha, scale of 0 to 100) was 85. For the same molecule, the “Plant response rating, Canada Thistle” value ([12]; 31 g ai/ha, scale 0 to 100) was 85, the “Canada Thistle plant response rating” value ([12]; 62 g ai/ha) was 90 and the “Canada Thistle plant response rating” value ([12]; 125 g ai/ha) was 100. For the same molecule, the “Plant response rating, Poinsettia, Wild” value ([13]; 16 g ai/ha, scale of 0 to 100) was 55, the “Plant response rating, Poinsettia, Wild” value ([13]; 31 g ai/ha, scale 0 to 100) was 65 and the “Poinsettia, Wild plant response rating” value ([13]; 62 g ai/ha) was 70. For the same molecule, the “Poinsettia, Wild plant response rating” value ([13]; 125 g ai/ha) was 75, the “Plant response rating, Field Poppy” value ([14]; 16 g ai/ha, scale of 0 to 100) was 80 and the “Plant response rating, Field Poppy” value ([14]; 31 g ai/ha, scale 0 to 100) was 90. For the same molecule, the “Field Poppy plant response rating” value ([14]; 62 g ai/ha) was 90, the “Field Poppy plant response rating” value ([14]; 125 g ai/ha) was 100 and the “Plant response rating, Johnsongrass” value ([15]; 16 g ai/ha, scale of 0 to 100) was 5. For the same molecule, the “Plant response rating, Johnsongrass” value ([15]; 31 g ai/ha, scale 0 to 100) was 5, the “Johnsongrass plant response rating” value ([15]; 62 g ai/ha) was 10 and the “Johnsongrass plant response rating” value ([15]; 125 g ai/ha) was 20. The “Plant response rating, Pigweed, Palmer” value ([16]; 16 g ai/ha, scale of 0 to 100) was 45, the “Plant response rating, Pigweed, Palmer” value ([16]; 31 g ai/ha, scale 0 to 100) was 75 and the “Pigweed, Palmer plant response rating” value ([16]; 62 g ai/ha) was 80. For the same molecule, the “Pigweed, Palmer plant response rating” value ([16]; 125 g ai/ha) was 100, the “Plant response rating, Nightshade” value ([17]; 16 g ai/ha, scale of 0 to 100) was 65 and the “Plant response rating, Nightshade” value ([17]; 31 g ai/ha, scale 0 to 100) was 85. For the same molecule, the “Nightshade plant response rating” value ([17]; 62 g ai/ha) was 90, the “Nightshade plant response rating” value ([17]; 125 g ai/ha) was 90 and the “Plant response rating, Kochia” value (kochia (Kochia scoparia); 31 g ai/ha, scale 0 to 100) was 80. The “Plant response rating, Kochia” value (kochia (Kochia scoparia); 62 g ai/ha, scale 0 to 100) was 90 and the “Plant response rating, Kochia” value (kochia (Kochia scoparia); 125 g ai/ha, scale of 0 to 100) was 90.
